Tested on: arachidonic acid induced ear swelling
Test: topical arachidonic acid induced ear swelling model in mice
Type: in vivo
Details: male ICR mice, applied 30 min before and 15 min after arachidonic acid, active compound 2 mg/ear x 2, indomethacin 3 mg/ear x 2, relative to lauryl lactate vehicle
Protocol: Male ICR mice weighing 22±2 g were used in the experiment. Arachidonic acid (2 mg in 20 μL acetone) was applied topically onto the anterior and posterior surfaces of the right ear of test animals. […] Ear swelling was then measured using a Dyer model micrometer gauge at 60, 90 and 120 minutes after arachidonic acid induction of ear edema as an index of inflammation.

SMILES	%, ear swelling inhibition after arachidonic acid, 60 min.	%, ear swelling inhibition after arachidonic acid, 90 min.	%, ear swelling inhibition after arachidonic acid, 120 min.
CS(=O)(=O)CCC(NCl)C(=O)O (stereo not drawn) [Active compound/lauryl lactate, 2-N chloro-4-methylsulfonyl-butyric acid]	33%	31%	34%
COc1ccc2c(c1)c(CC(=O)O)c(C)n2C(=O)c1ccc(Cl)cc1 [Indomethacin/lauryl lactate, indomethacin]	71%	65%	70%

— US7851650B2, “Compounds for treating inflammation and pain” (Olatec Industries LLC, priority 2009, dated 2010)
